# Source: PMC12494553, “A unique gating mechanism revealed by the cryo-EM structure of monomeric ATP9A flippase” (The Journal of Biological Chemistry, 2025)
# Target: T1, ATP9A (Homo sapiens, UniProt O75110)
# T1 construct: N-terminal region before Pro38 deleted; N-terminal His6-EGFP tag cut off with HRV-3C; HEK293S GnT1- (BacMam); LMNG/GDN micelles; monomer, about 90 kDa
# T1 sequence (O75110 38-1047): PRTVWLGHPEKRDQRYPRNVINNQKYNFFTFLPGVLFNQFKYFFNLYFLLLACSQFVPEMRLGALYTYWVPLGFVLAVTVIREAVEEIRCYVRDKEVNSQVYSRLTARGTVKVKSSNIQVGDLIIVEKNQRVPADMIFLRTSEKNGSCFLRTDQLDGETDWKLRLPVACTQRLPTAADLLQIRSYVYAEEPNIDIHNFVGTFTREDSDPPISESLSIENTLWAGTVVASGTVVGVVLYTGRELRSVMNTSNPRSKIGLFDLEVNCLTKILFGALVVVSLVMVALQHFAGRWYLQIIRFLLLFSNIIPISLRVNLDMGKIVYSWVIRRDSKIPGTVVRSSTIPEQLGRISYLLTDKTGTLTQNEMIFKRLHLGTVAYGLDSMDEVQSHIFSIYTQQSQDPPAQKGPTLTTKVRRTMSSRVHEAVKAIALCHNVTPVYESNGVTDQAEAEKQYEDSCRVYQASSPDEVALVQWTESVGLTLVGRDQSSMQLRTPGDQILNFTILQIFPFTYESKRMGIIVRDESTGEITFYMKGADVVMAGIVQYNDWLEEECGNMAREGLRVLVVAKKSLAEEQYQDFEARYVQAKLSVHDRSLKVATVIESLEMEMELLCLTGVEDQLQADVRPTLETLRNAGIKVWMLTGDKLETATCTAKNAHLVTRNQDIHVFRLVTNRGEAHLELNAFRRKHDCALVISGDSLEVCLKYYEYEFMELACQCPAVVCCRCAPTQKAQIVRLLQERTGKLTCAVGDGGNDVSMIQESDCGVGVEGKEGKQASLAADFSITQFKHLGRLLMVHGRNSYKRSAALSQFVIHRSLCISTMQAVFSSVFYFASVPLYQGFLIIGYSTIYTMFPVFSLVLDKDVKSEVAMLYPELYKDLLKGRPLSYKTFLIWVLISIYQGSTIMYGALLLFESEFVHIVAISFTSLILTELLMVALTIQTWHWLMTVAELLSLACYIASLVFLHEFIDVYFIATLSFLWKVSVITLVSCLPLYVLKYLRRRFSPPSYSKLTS
# Experiment: cryo-EM structure
# Assay type: binding
SMILES,"cryo-EM structure (phosphate analog bound at catalytic Asp391, E2P state, open (9VDK, 2.18 Å) and closed (9VDL, 2.31 Å) forms, made from 1 mM BeSO4 and 3 mM NaF, also used as ATPase blank)","cryo-EM structure (open form, E2P BeF state, lipid modelled from density, not added, outside canonical phospholipid site)"
[F][Be-]([F])[F] [BeF],The phosphate analog BeF is bound to the catalytic Asp391,–
"CC(C)CCC[C@@H](C)[C@H]1CC[C@H]2[C@@H]3CC=C4C[C@@H](O)CC[C@]4(C)[C@H]3CC[C@]12C [CLR, cholesterol]",–,Bound phospholipids (PLs) and cholesterol (CLR) in the open form are indicated
